Measurements from patent publication US9181263B2, “Inhibitors of bruton's tyrosine kinase” (PHARMACYCLICS, INC., priority 2007, dated 2015).

Key:
[1] = Glutathione binding assay; format: physicochemical; conditions: 5 mM glutathione, 10 μM inhibitor, potassium phosphate buffer, room temperature, HPLC
Description: A calculated value (e.g (1/Btk IC50)/Glutathione conjugation rate) as shown in the Table 2) is used to compare compounds for their ratio between potency at inhibiting their target and their non-specific binding to other SH groups, such as those in glutathione. […] Calculated ratios such as these are used to quantitatively compare different compounds and select compounds for further study.
For the glutathione binding assays, 5 mM glutathione, 10 μM Btk inhibitor in DMSO (10 μL) and 6 equivalents of N′N′ Diisopropyl ethyl amine were combined in 1 mL potassium phosphate buffer. The mixture was incubated for 0, 15, 60 minutes at room temperature and the reaction was stopped with 10 equivalents of formic acid. 50 μL of each reaction mixture was injected on HPLC (Mobil Phase A: 0.2% formic acid in water, Mobile Phase B: 0.2% formic acid in acetonitrile, HPLC Column: Metasil Basic 3μ, 150×4.6 mm, 10% B, Gradient: 10% to 90% B, Detection: UV/Vis […]). Rate of reaction was reported as nmole GSH conjugate conversion per minute from the normalized ratio for area under the curve from HPLC chromatograms for both GSH conjugate and the parent.

[2] = system: lymphoma cell line DOHH2; assay: DOHH2 cell proliferation assay (Alamar Blue); format: cell-based; conditions: Homo sapiens, DOHH-2, 72 hours
Description: After 72 hours, cell number was measured using Alamar Blue using manufacturer's protocol. A dilution series of untreated cells was run in parallel to verify that the Alamar Blue assay reliably reflected cell number and that growth conditions were not limiting. […] GI50 values were confirmed in two or more separate experiments for each cell line.
Analogs are generated that are Btk inhibitors and that are cytotoxic to the lymphoma cell line DOHH2. For the DOHH2 cell proliferation assay, cells were seeded in 96-well plates in standard growth media (RPMI+10% fetal calf serum) and compounds were added in a 9-point dilution series ranging from 10 uM to 0.04 uM with DMSO at 0.1% final concentration in all wells. After 72 hours, cell number was measured using Alamar Blue using manufacturer's protocol. A dilution series of untreated cells was run in parallel to verify that the Alamar Blue assay reliably reflected cell number and that growth conditions were not limiting.

CN(C)C/C=C/C(=O)N1CCC[C@@H]1Cn1nc(-c2ccc(Oc3ccccc3)cc2)c2c(N)ncnc21 [Compound 11, (E)-1-((R)-2-((4-amino-3-(4-phenoxyphenyl)-1H-pyrazolo[3,4-d]pyrimidin-1-yl)methyl)pyrolidin-1-yl)-4-(dimethylamino)but-2-en-1-one]
Glutathione Conj Rate [1]: 0.004525 nmol/min | GI50 [2]: > 10 µM
